Reference: PMC6272622, “Phytochemical Profiling and Evaluation of Pharmacological Activities of Hypericum scabrum L” (Molecules, 2015)
Like-named read-outs stand apart in the source and are kept apart here.

Legend:
[1] = system: Candida albicans ATCC 10231; assay: Antimicrobial activity, agar well diffusion method; format: cell-based; settings: 37 °C, 24 h
Experimental: (§1) Antimicrobial activity of compounds 1 to 6 and crude extracts 7a, 8a, 9a; 10 to 13 were measured using the agar well diffusion method. Bacterial and fungal pathogens such as S. aureus (ATCC 6538), E. coli (ATCC 11229) and C. albicans (ATCC 10231) were used as indicator strains for this analysis. These microorganisms were aseptically inoculated into appropriate liquid media and incubated at 37 °C. After 16 h, the cells were centrifuged at 6000 rpm for 10 min and then suspended in sterile water. The different cells (1 mL) were added to appropriate agar media (100 mL) prior to plating, and the wells were made using an agar well borer. To these wells, different concentrations of compounds 1 to 6 and the extracts 7a, 8a, 9a; 10 to 13 were added and subsequently incubated at 37 °C for 24 h. Zones of inhibition were estimated by measuring the diameter of the microbial growth inhibition zones. Values were averaged from three independent experiments.

[2] = system: Staphylococcus aureus ATCC 6538; assay: Antimicrobial activity, agar well diffusion method; format: cell-based; settings: 37 °C, 24 h
Experimental: as §1

[3] = system: Escherichia coli ATCC 11229; assay: Antimicrobial activity, agar well diffusion method; format: cell-based; settings: 37 °C, 24 h
Experimental: as §1

[4] = DPPH radical scavenging assay; settings: 37 °C, 30 min, 515 nm; for IC50: pure compounds, read-out: DPPH Scavenging Effects, IC50 Values
Experimental: Radical scavenging assay was determined by a micro plate spectrophotometric method based on the reduction of DPPH according to the previous report. Various dilutions of pure compounds and crude extracts in the concentration range 0.0625 to 1 mM and 0.0625 to 1 mg∙mL^−1, respectively were made. Briefly DPPH solution (100 μL) and pure compound or crude extract in DMSO (100 μL) were added to each well of the micro plate and mixed. The mixture was shaken vigorously and left to stand at 37 °C for 30 min in dark. The absorbance of the solution was then measured at wavelength 515 nm using a micro plate spectrophotometer. Inhibition (%) of free radical (DPPH) was determined as [(Acontrol − Asample)/Acontrol] × 100, where: Acontrol is the absorbance of the control sample containing all reagents except the test sample and Asample is the absorbance of the test sample (pure compound or crude extract). Vitamin C was used as the positive control and tests were carried out in triplicate. The IC50 values were determined for all tested flavonoids, extract and control standard antioxidant.

[5] = target: T1, Protein tyrosine phosphatase 1B (PTP-1B) (Homo sapiens, UniProt P18031); assay: Protein tyrosine phosphatase 1B (PTP-1B) inhibition assay with pNPP substrate; format: biochemical
T1 sequence (P18031 1-435): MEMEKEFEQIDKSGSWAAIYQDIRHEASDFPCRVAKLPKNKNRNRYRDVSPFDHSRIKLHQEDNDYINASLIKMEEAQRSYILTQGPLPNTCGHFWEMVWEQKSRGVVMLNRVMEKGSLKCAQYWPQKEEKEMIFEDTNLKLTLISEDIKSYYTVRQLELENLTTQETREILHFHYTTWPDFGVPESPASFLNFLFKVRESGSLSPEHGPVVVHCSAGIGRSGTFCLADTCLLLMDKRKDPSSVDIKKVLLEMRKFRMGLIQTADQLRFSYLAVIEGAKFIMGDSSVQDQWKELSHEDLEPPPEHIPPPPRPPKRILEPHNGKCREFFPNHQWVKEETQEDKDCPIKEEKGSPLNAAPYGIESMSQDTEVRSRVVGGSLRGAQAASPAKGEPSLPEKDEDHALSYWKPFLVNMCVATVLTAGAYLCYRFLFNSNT
Experimental: Compounds were pre-incubated with the enzyme at room temperature for 5 min. Then, 178 µL of buffer solution (20 mM HEPES, 150 mM NaCl, 1 mM EDTA) was added in 96-well plates. […] After that, 1 µL of test and positive control sample were added. Thereafter, 20 µL of the substrate pNPP (35 mM) was added and mixed for 10 min. The plate was incubated in the dark for 30 min and the reaction was terminated by adding 10 µL of 3 M NaOH. The absorbance was then determined at 405 nm wavelength. […] Inhibition (%) = [(OD405 − OD405 blank)/OD405 blank] × 100. IC50 was calculated from the percentage inhibition values.

[6] = pNPP substrate, absorbance at 405 nm

Compound: C[C@@H]1[C@H](O)[C@@H](C)/C=C/C=C/C=C/C=C/C=C/C=C/C=C/[C@H](O[C@@H]2O[C@H](C)[C@@H](O)[C@H](N)[C@@H]2O)C[C@@H]2O[C@](O)(C[C@@H](O)C[C@@H](O)[C@H](O)CC[C@@H](O)C[C@@H](O)CC(=O)O[C@H]1C)C[C@H](O)[C@H]2C(=O)O [Amphotericin B, reference compound]
- Inhibition Zone Diameter CA [1]: 15 mm

Compound: CC1(C)S[C@@H]2[C@H](NC(=O)[C@H](N)c3ccccc3)C(=O)N2[C@H]1C(=O)O [Ampicillin, reference compound]
- Inhibition Zone Diameter SA [2]: 19 mm
- Inhibition Zone Diameter EC [3]: 14 mm

Compound: O=c1c(-c2c(O)cc(O)c3c(=O)cc(-c4ccc(O)cc4)oc23)c(-c2ccc(O)cc2)oc2cc(O)cc(O)c12 [Compound 1, 3-8′′-Bisapigenin]
- IC50 [4]: > 500 µM
- IC50 [5, 6]: > 50 µM
- Inhibition Zone Diameter CA [1]: n.e.
- Inhibition Zone Diameter SA [2]: 5.5 mm
- Inhibition Zone Diameter EC [3]: n.e.

Compound: O=c1c(O)c(-c2ccc(O)c(O)c2)oc2cc(O)cc(O)c12 [Compound 2, Quercetin]
- IC50 [4]: 24.9 ± 1.4 µM
- Inhibition Zone Diameter CA [1]: 6.5 mm
- Inhibition Zone Diameter SA [2]: 12 mm
- Inhibition Zone Diameter EC [3]: n.e.

Compound: O=c1c(O[C@@H]2O[C@@H](CO)[C@H](O)[C@H]2O)c(-c2ccc(O)c(O)c2)oc2cc(O)cc(O)c12 [Compound 3, Quercetin-3-O-α-L-arabinofuranoside]
- IC50 [4]: 38.3 ± 2 µM
- IC50 [5, 6]: > 50 µM
- Inhibition Zone Diameter CA [1]: n.e.
- Inhibition Zone Diameter SA [2]: n.e.
- Inhibition Zone Diameter EC [3]: 5.5 mm

Compound: C[C@@H]1O[C@@H](Oc2c(-c3ccc(O)c(O)c3)oc3cc(O)cc(O)c3c2=O)[C@H](O)[C@H](O)[C@H]1O [Compound 4, Quercetin-3-O-α-L-rhamnoside]
- IC50 [4]: 32.1 ± 1.6 µM
- IC50 [5]: > 50 µM
- Inhibition Zone Diameter CA [1]: 5.5 mm
- Inhibition Zone Diameter SA [2]: n.e.
- Inhibition Zone Diameter EC [3]: 8 mm

Compound: O=c1c(O[C@@H]2O[C@H](CO)[C@@H](O)[C@H](O)[C@H]2O)c(-c2ccc(O)c(O)c2)oc2cc(O)cc(O)c12 [Compound 5, Quercetin-3-O-β-D-glucopyranoside]
- IC50 [4]: 24.8 ± 1.3 µM
- IC50 [5, 6]: > 50 µM
- Inhibition Zone Diameter CA [1]: n.e.
- Inhibition Zone Diameter SA [2]: 11 mm
- Inhibition Zone Diameter EC [3]: n.e.

Compound: O=c1c(O[C@@H]2O[C@H](CO)[C@H](O)[C@H](O)[C@H]2O)c(-c2ccc(O)c(O)c2)oc2cc(O)cc(O)c12 [Compound 6, Quercetin-3-O-β-D-galactopyranoside]
- IC50 [4]: 29.5 ± 1.5 µM
- IC50 [5, 6]: > 50 µM
- Inhibition Zone Diameter CA [1]: n.e.
- Inhibition Zone Diameter SA [2]: 11 mm
- Inhibition Zone Diameter EC [3]: 6.5 mm

Compound: O=C1O[C@H]([C@@H](O)CO)C(O)=C1O [Vitamin C, reference compound]
- DPPH Scavenging Effects; IC50 Values ([4]; crude extracts): 5.34 ± 0.4 µg/mL
- IC50 [4]: 30.3 ± 2.4 µM
